Source: publication PMC9710782, “Plantaricin NC8 αβ rapidly and efficiently inhibits flaviviruses and SARS-CoV-2 by disrupting their envelopes” (PLOS ONE, 2022)

Legend:
LGTV = test system: LGTV; set-up: species or system Langat virus
[1] = test system: Langat virus strain TP21 (LGTV); assay type: cell-based; conditions: n = 4
SARS-CoV-2 = SARS-CoV-2 virus inhibition (plaque) assay; assay type: cell-based, Severe Acute Respiratory Syndrome Coronavirus 2; conditions: read-out: concentration for 50% reduction of PFU / viral load (SARS-CoV-2)
IAV (H1N1/CApdm09) = assay: Influenza A virus inhibition (plaque) assay; assay type: cell-based; conditions: read-out: concentration required to suppress IAV (by 50%)

Row | Sequence | permeabilization of LGTV particles (Sytox Green staining), single peptide (LGTV) | effect on virus infectivity (LGTV viral load) [1] | IC50 (SARS-CoV-2) | IC50 (IAV (H1N1/CApdm09))
1 | DLTTKLWSSWGYYLGKKARWNLKHPYVQF [D-PLNC8 α] | not as efficient | – | – | –
2 | LLGDFFRKSKEKIGKEFKRIVQRIKDFLRNLVPRTES [LL-37, human cathelicidin-derived antimicrobial peptide used as a control, reference compound] | – | did not affect virus infectivity | – | –
3 | SVPTSVYTLGIKILWSAYKHRKTIEKSFNKGFYH [D-PLNC8 β] | permeabilized | – | ~500 nM | ~500 nM
